Assay results published in patent US8012929B2, “Peptides directed for diagnosis and treatment of amyloid-associated diseases” (Tel Aviv University Future Technology Development L.P., priority 2002, dated 2011).
Square brackets hold non-standard residues; d marks the D form. Peptide text beside a SMILES is read from it. Aib = CC(C)(N)C(=O)O

Legend:
PC-12 cells = experiment: Inhibition of β-amyloid cytotoxicity in PC-12 cells (MTT); type: cell-based; settings: 5 μM Aβ1-40, 6.5 μM-150 μM D-Trp-Aib, 24 hr, pre-incubated 21 days
Method: Prior to incubation with the PC-12 cells, 5× concentrated Aβ1-40 (25 μM) and 5× concentrated D-Trp-Aib were pre-incubated for 21 days.
Cell viability—The MTT-assay is a very sensitive assay measuring the mitochondrial dehydrogenase activity in viable cells. Following incubation, MTT reduction assay was undertaken according to the method described by Mosmann, [J. Immunol. Meth, 55-63 (1983)], cell viability was calculated by subtracting Aβ1-40 samples absorbance from non-Aβ1-40 controls containing the same D-Trp-Aib concentrations.

[1] = system: hAPP(751) transgenic mice; settings: mouse, in vivo, ip
Method: Experimental design—20 (+3 reserves) 4.5 month (±1 week) old male hAPP(751) transgenic mice were divided into 2 treatment groups, a control group—treated with vehicle and an experimental group—treated with D-Trp-Aib. Animals were treated for 120 days with 3 intraperitoneal (i.p.) injections of 1 mg per animal per day 7 of the original 20 animals died during the 4-month experimental period, 4 of them from the control group.

HepG2 cells = experiment: Cytotoxicity assay in hepatocytes; type: cell-based; settings: up to 2.5×10^−4 M, 3H-Thymidine incorporation and Alamar-Blue assays
Method: Cytotoxicity assay in hepatocytes—Following culture (37° C. in an atmosphere of 5% CO2 and 100% humidity), HepG2 cells (ATCC Accession No: HB-8065) were seeded at a density of 5000 cells/well in 96 well optical plate (Nunc, Rochester, N.Y.). Culture was maintained in the logarithmic phase throughout the experiment. One day after seeding, peptides were dissolved in DMSO (1:10) and added to the wells to achieve final concentrations of 2.5×10^−4−1×10^−8. Each plate column (8 wells) was used to test one peptide in one concentration. A day following peptide addition, ^3H-Thymidine was added to the cell culture, and two days following addition cells were harvested. ^3H-Thymidine incorporation to the DNA of proliferating cells was measured in Top Count NTX counter (Packard, Quebec, Canada). […] The indicator was incubated for 18 hours and fluorescence was measured with 544 nm excitation/590 nm emission wavelengths. Data was presented as the mean amount of Alamar-Blue fluorescence or ^3H-Thymidine CPM monitored per well. Average was calculated per plate column. For Alamar-Blue signals standard deviation (SD) was calculated, while for ^3H Thymidine signal, standard error (SE) was calculated. […] Equivocal results were analyzed using oneway (ANOVA) with Dunnett Multiple comparison Test.

[2] = Serum stability, mouse serum (HPLC); type: in vitro ADME; settings: 37° C., 2 and 5 hours
Text: D-Trp-Aib serum stability—Regardless of administration route, all drugs penetrate and distribute in the body via the blood system. This milieu is based not only on cells and buffering compounds, but also on proteins, carbohydrates, lipid-protein micelles, etc. Serum proteins mainly contain carrier proteins, such as albumin, but also contain many enzymes that might treat the drug as a substrate. Thus, the susceptibility of any drug entering this environment should be evaluated. The stability of D-Trp-Aib spiked into serum was evaluated by analysis of intact sample concentrations at different time points. D-Trp-Aib (250 μg/ml PBS) was incubated with mouse (Harlan Biotech, Israel) or human (obtained from Sheba medical center, Tel Hashomer, Israel) sera or PBS (1:1, 37° C.), and aliquots were analyzed by HPLC analysis at times 0, 2 and 5 hrs. The reaction was stopped and precipitation was effected by the addition of acetonitrile (Baker, Phillipsburg N.J.) and 10% TCA. Following centrifugation (10,000 g, 5 min), Supernatant was transferred to HPLC analysis. Mean amounts of D-Trp-Aib (μg)±s.e.m. were calculated by an internal calibration curve. […]

Structure (SMILES): CC(C)(NC(=O)[C@H](N)Cc1c[nH]c2ccccc12)C(=O)O [D-Trp-Aib] (H-[dW]-[Aib]-OH)
- inhibition of β-amyloid cytotoxicity (MTT viability) (PC-12 cells): highly effective in inhibiting the cytotoxicity of β-amyloid
- long-term toxicity [1]: no long-term toxicity
- cytotoxic effect on HepG2 cells (HepG2 cells): no cytotoxic effect
- D-Trp-Aib concentration after incubation in serum [2]: No decrease
